From PubChem BioAssay AID1601 come the findings set out here.

Inconclusive results are not listed. Where a SMILES comes first, the peptide text is derived from it.

In this experiment the test system is mutant SOD1 cell death rescue, 1 uM. The experiment can be described thus: protection from mutant SOD1-driven cell killing (AID 1601).
For the molecule `CC(C)=CCC/C(C)=C/CO`, the EC50 (usually the concentration giving half of the maximal effect) is 1200 nM.
With `CC[C@H]1OC(=O)[C@H](C)[C@@H](O[C@H]2C[C@@](C)(OC)[C@@H](O)[C@H](C)O2)[C@H](C)[C@@H](O[C@@H]2O[C@H](C)C[C@H](N(C)C)[C@H]2O)[C@](C)(O)C[C@@H](C)CN(C)[C@H](C)[C@@H](O)[C@]1(C)O`, the EC50 is 900 nM.
Turning to `CC(C)NCC(O)c1ccc(O)c(O)c1` (centres undefined), the EC50 was 1000 nM.
As for `CC[C@@H](CO)NCCN[C@@H](CC)CO`, the figure is 2900 nM; as for `CC(=O)NS(=O)(=O)c1ccc(N)cc1`, 2100 nM.
Turning to `CCCC(CCC)C(=O)O`, the EC50 was 700 nM.
For `NCCCCC(N)C(=O)NC(Cc1c[nH]c2ccccc12)C(=O)NC(CCCCN)C(=O)O` (stereo not drawn) (H-Lys-Trp-Lys-OH; configuration not given here) the value was 8600 nM; for `CC(C)COCC(CN(Cc1ccccc1)c1ccccc1)N1CCCC1` (centres undefined), 1000 nM.
Regarding `Cc1cc(C(C)(C)CC(C)(C)C)ccc1OCCOCC[N+](C)(C)Cc1ccccc1`, the EC50 is 100 nM.
